Results taken from paper PMC10376691, “Inhibition of Acetylcholinesterase and Amyloid-β Aggregation by Piceatannol and Analogs: Assessing In Vitro and In Vivo Impact on a Murine Model of Scopolamine-Induced Memory Impairment” (Antioxidants, 2023).
Entries after “also recorded” stand apart in the source; their conditions may differ.

Tests used:
Aβ peptide (1–42) = target: T1, Aβ peptide (1–42) (Homo sapiens, UniProt P05067); assay: biochemical
T1 construct: The Aβ peptide (1–42) was synthesized and purchased from Kelowna International Scientific Inc; purchased Kelowna International Scientific Inc. (New Taipei, Taiwan); host or cells: chemical synthesis
Procedure: To prepare the 10 μM Aβ peptide working solution, commercial Aβ peptide was first weighted and dissolved in HFIP to 1 mM. Next, the solvent was evaporated in a hood and then re-dissolved using 100 μL of 60 mM NaOH. It was then diluted to 10 μM working solutions with 50 mM phosphate buffer (pH 7.4, containing 150 mM sodium chloride and 1 mM EDTA), following previous reports. […] DMSO instead of the sample solution was used as the control. The 50 mM phosphate buffer was used instead of the Aβ working solution as the sample blank. […] The IC50 of the inhibition against the Aβ aggregation of PIC and its analogs was calculated from each linear equation using three test concentrations and their inhibition capacities.

[1] = Neurite outgrowth and cell viability, two-color fluorescence assay kit; format: cell-based; conditions: human, 3-day or 6-day treatment, green fluorescence, read-out: cell viability relative to the control
Procedure: (§1) The SH-SY5Y cells were grown in DMEM/F-12 medium supplemented with 10% FBS at 37 °C under a humidified atmosphere and 5% CO2 [41]. […] The MTT was used to evaluate cell viability, and the absorbance at 570 nm was determined. The DMSO used instead of the sample solution was blank (recognized as 100%), and each treatment was expressed as relative cell viability (%). To study the stimulation of neurite outgrowth, the SH-SY5Y cells (5000 cells/well) were seeded on a 96-well plate pre-coated with poly-L-lysine and then cultured in the DMEM/F-12 medium containing 10% FBS overnight at 37 °C under a humidified atmosphere and 5% CO2. After being removed from the culture medium, each PIC, GNT, RHA, and isoRHA (at a final concentration of 10 μM in the 0.1%DMSO) or 0.1% DMSO (the control) was added to the DMEM/F-12 medium containing 10% FBS and refreshed every three days. On day 3 and day 6, each of the culture plates was photographed using an inverted microscope (ECLIPSE TS100, Nikon Instruments Inc., Tokyo, Japan). The culture medium was removed and washed with PBS, and the cultured cells in each well were fixed with 4% paraformaldehyde. To measure cell viability and quantify the neurite outgrowths of the treated SH-SY5Y in a 96-well plate, the neurite outgrowth staining kit (a two-color fluorescence assay kit) was used, following a previous report or the protocol in the manufacturer’s manual (publication number: MAN0007224), which included a cell membrane-stained fluorescent dye (orange-red fluorescence), a cell viability indicator (green fluorescence), and a reagent for background masking. […] The value for the control was recognized as 100%, and each treatment was expressed relative to the control.

SH-SY5Y cells = assay: as above; format: cell-based; conditions: 10 μM, 3-day or 6-day treatment, orange-red fluorescence; vs control
Procedure: as §1

[2] = target: T2, mouse AChE activity in the brain extracts (Mus musculus, UniProt P21836); assay: AChE activity in brain extracts of scopolamine-induced ICR mice; format: in vivo; conditions: PIC 50 mg/kg, donepezil 5 mg/kg oral; vs control p < 0.05
T2 construct: The protein content of the whole brain extracts from the mice was quantified using the BCA protein kit; from tissue; host or cells: whole brain extract of scopolamine-induced ICR mice
T2 sequence (P21836 32-614): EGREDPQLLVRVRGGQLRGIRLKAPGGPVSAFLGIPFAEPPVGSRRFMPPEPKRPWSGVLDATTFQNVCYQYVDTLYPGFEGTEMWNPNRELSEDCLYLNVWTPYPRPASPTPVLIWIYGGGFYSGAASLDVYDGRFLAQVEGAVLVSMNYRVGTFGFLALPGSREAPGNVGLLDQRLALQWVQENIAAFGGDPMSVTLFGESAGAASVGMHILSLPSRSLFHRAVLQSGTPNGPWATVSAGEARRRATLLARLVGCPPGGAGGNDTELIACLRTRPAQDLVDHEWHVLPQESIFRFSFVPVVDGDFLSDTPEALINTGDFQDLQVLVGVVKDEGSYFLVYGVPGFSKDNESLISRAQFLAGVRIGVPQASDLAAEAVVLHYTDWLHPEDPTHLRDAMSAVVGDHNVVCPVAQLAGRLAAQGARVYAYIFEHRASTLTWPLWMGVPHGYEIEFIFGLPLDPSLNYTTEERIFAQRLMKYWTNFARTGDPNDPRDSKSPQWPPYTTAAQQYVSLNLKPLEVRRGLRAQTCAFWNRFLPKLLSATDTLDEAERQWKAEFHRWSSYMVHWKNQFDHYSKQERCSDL
Procedure: The AChE activities in the mouse brain tissue extract were assayed following the method in Section 2.3, with some modifications. The protein content of the whole brain extracts from the mice was quantified using the BCA protein kit, with bovine serum albumin as the standard protein.

db/db mice = conditions: oral 50 mg/kg for 2–3 weeks; cited from earlier work
[3] = after oral RSV 75 mg/kg, athymic nude mice; cited from earlier work
[4] = oral administration to rats; cited from earlier work
[5] = DPPH radical scavenging activity
Procedure: DPPH radical scavenging activity was assayed following a previous report, with some modifications. […] DMSO was used instead of a sample solution in the blank group. […] The scavenging activity of the DPPH radical (%) was calculated with the following equation: (△A515blank − △A515sample) ÷ △A515blank × 100%. The IC50 of the DPPH radical scavenging activity of PIC and its analogs or that of Trolox was calculated from each linear equation by three test concentrations and their radical scavenging activities.

[6] = tested on: LPS-treated Swiss albino mice; conditions: 6-day treatment 2.5 mg/kg/day, LPS 0.8 mg/kg i.p.; cited from earlier work

T1 sequence (P05067 672-713): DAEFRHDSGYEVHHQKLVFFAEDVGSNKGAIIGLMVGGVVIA

SMILES: Oc1cc(O)cc(C=Cc2ccc(O)c(O)c2)c1 [PIC, 3,5,3′,4′-tetrahydroxystilbene]
- IC50 (Aβ peptide (1–42)): 0.48 µM
- anti-Aβ aggregation capacity, fold higher than that of RSV (Aβ peptide (1–42); vs RSV): 2.94 fold
- viability at 10 µM [1]: 80%
- stimulation of neurite outgrowths (SH-SY5Y cells): not PIC nor GNT; also recorded: not PIC and GNT
- AChE activity in the brain extracts [2]: reductions in AChE activities
- blood glucose levels (db/db mice): reduce blood glucose levels
- PIC detected in the liver [3]: 11.50 nmol/g
- PIC detected in the plasma [3]: 5.25 µmol/L
- PIC detected in the skin [3]: 2.4 nmol/g
- bioavailability [4]: 50.7%
- half-life [4]: 4.23 h
- IC50 ([5]; 120 μM DPPH in methanol, 37 °C, 20 min): 40.2 µM
- DPPH scavenging capacity, fold higher than that of RSV ([5]; ratio of IC50, vs RSV): 2.5 fold
- DPPH scavenging capacity, fold higher than that of Trolox ([5]; ratio of IC50, vs Trolox): 2.07 fold
- Aβ levels in brain extracts [6]: reduce Aβ levels in brain extracts
- learning and memory functions [6]: ameliorate
